Measurements taken from patent US6054457A, “Benzamide derivatives and their use as vasopressin antagonists” (Fujisawa Pharmaceutical Co., Ltd., priority 1995, dated 2000).
Structures can show the parent of a compound that is named as a salt.

Key:
[1] = target: Vasopressin 1 (V1) receptor (Homo sapiens, UniProt P37288); test: Vasopressin 1 (V1) Receptor Binding; details: competition with 1.5 nM 3H-vasopressin, platelet membrane preparation from blood of normal subjects, 15 minutes at 30° C.
[2] = target: human V2 receptor (Homo sapiens, UniProt P30518); test: Vasopressin 2 (V2) Receptor Binding; details: competition with 0.5 nM 3H-vasopressin, membranes of CHO cells expressing human V2 receptor, 2 hours at 22° C.
Chain of human V2 receptor (P30518 whole entry): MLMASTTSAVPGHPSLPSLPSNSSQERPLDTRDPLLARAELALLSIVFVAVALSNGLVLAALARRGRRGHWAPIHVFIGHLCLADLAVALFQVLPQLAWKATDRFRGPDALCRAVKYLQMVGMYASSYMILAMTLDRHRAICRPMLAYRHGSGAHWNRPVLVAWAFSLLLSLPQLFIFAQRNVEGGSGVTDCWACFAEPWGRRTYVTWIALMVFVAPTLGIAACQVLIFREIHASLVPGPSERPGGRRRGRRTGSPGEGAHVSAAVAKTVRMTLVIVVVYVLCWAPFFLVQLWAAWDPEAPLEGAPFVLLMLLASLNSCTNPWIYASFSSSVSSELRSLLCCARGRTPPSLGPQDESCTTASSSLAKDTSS

Chain of Vasopressin 1 (V1) receptor (P37288 whole entry): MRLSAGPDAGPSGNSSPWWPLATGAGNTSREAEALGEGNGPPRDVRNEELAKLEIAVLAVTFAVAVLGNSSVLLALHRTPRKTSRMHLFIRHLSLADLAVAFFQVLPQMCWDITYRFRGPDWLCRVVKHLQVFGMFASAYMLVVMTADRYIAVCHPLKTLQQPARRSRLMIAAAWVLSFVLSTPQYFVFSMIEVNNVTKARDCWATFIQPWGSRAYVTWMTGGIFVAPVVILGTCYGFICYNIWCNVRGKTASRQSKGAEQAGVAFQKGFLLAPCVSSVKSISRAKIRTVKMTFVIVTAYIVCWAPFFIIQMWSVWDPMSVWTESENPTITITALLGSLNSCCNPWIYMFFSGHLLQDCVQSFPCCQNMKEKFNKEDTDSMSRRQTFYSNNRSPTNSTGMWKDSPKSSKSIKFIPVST

CCOC(=O)CCCCCOc1cc(C)ccc1N(C)C(=O)c1ccc(NC(=O)c2ccccc2OCCCN)cc1 [17-20), 4-[2-(3-Aminoprop-1-yl)oxybenzoyl]amino-N-[2-(5-ethoxycarbonylpent-1-yl)oxy-4-methyl]phenyl-N-methylbenzamide hydrochoiride]
IC50 [1]: 31 nM | IC50 [2]: 1300 nM

CN1CCN(C(=O)CCCCCOc2ccccc2N(C)C(=O)c2ccc(NC(=O)c3ccccc3OCCCN)cc2)CC1 [Example 16, 4-[2-[(3-aminoprop-1-yl)oxy]benzoyl]amino-N-methyl-N-[2-[5-(4-methylpiperazin-1-yl)carbonylpent-1-yloxy]phenyl]benzamide dihydrochloride]
IC50 [1]: 14 nM | IC50 [2]: 1400 nM

Cc1ccc(N(C)C(=O)c2ccc(NC(=O)c3ccccc3N)cc2)c(OCCCCCC(=O)O)c1 [5-2), 4-(2-Aminobenzoyl)amino-N-methyl-N-[2-(5-carboxypent-1-yloxy)-4-methylphenyl]benzamide]
IC50 [1]: 51 nM | IC50 [2]: 1300 nM
